Test results from patent EP0414533A1, “Use of iodopropargyl esters of alpha-amino acid derivatives as antimicrobial agents” (ROHM AND HAAS COMPANY, priority 1989, dated 1991).
Converted amounts (≈) assume the structure as drawn. Where two headings read alike, the source gives them in different places.

How the values were obtained:
[1] = test system: Rhizoctonia solani (RHI); experiment: In-vitro plant fungicide test; assay type: cell-based; details: Rhizoctonia solani
[2] = test system: ALT; experiment: In-vitro plant fungicide test; assay type: cell-based; details: Table IVb, read-out: % Control at (ppm) indicated ALT
[3] = test system: Xanthomonas campestris (XAN); experiment: In-vitro plant fungicide test; assay type: cell-based; details: Xanthomonas campestris; 25 ppm; Table IVa; read-out: % Control at 25 ppm XAN
[4] = test system: Cochliobolus sativus (HEL); experiment: In-vitro plant fungicide test; assay type: cell-based; details: Bipolaris sorokiniana
[5] = test system: CER; experiment: In-vitro plant fungicide test; assay type: cell-based; details: Table IVb, read-out: % Control at (ppm) indicated CER
[6] = test system: Botrytis cinerea (BOC); experiment: In-vitro plant fungicide test; assay type: cell-based; details: Botrytis cinerea
[7] = test system: MON; experiment: In-vitro plant fungicide test; assay type: cell-based; details: Table IVb, read-out: % Control at (ppm) indicated MON
[8] = test system: Pythium ultimum (PYU); experiment: In-vitro plant fungicide test; assay type: cell-based; details: Globisporangium ultimum
[9] = test system: COL; experiment: In-vitro plant fungicide test; assay type: cell-based; details: Table IVb, read-out: % Control at (ppm) indicated COL
[10] = test system: Pseudomonas aerugenosa (PSAE); experiment: Minimum inhibitory concentration (MIC), broth two-fold serial dilution test; details: Pseudomonas, IIIB, read-out: MIC (G-) PSAE, trypticase soy broth (complex media); Table IIIb
[11] = test system: THREE FUNGI; experiment: MIC test against three fungi in Mycophile Broth, pH 5.0, read after 8 days (Table VII); assay type: cell-based; details: 192 h, serial dilutions from 50 ppm, read after 8 days of incubation
[12] = test system: UST; experiment: In-vitro plant fungicide test; assay type: cell-based; details: Table IVb, read-out: % Control at (ppm) indicated UST
[13] = test system: Aspergillus niger (ANIG); experiment: Minimum inhibitory concentration (MIC), broth two-fold serial dilution test; assay type: cell-based; details: Aspergillus niger, IIIB, trypticase soy broth (complex media); Table IIIb; read-out: MIC (F) ANIG
[14] = test system: Phytophthora capsici (PHY); experiment: In-vitro plant fungicide test; assay type: cell-based; details: Phytophthora capsici
[15] = test system: Fusarium roseum (FUS); experiment: In-vitro plant fungicide test; assay type: cell-based; details: Fusarium sambucinum
[16] = test system: Escherichia coli (ECOL); experiment: Minimum inhibitory concentration (MIC), broth two-fold serial dilution test; details: Escherichia coli, IIIB, read-out: MIC (G-) ECOL, trypticase soy broth (complex media); Table IIIb
[17] = test system: Staphylococcus aureus (SAUR); experiment: as above; details: Staphylococcus aureus, IIIB, read-out: MIC (G+) SAUR, trypticase soy broth (complex media); Table IIIb
Source text: When the test is ready to be done, each vessel in the dilution series, except the first vessel, contains an equal volume of compound free broth. The first vessel contains twice the volume of broth with the starting concentration of test compound. One half of the broth from the first vessel is transferred to the second vessel. After being mixed, one half the resulting volume is removed from the second vessel and transferred to the third vessel. The entire cycle is repeated sufficiently to give a series of concentrations amounting to 500, 250, 125, 63, 31, 16, 8, and 4 ppm (or 100, 50, 25, 12.5, 6.2, 3.1, 1.6, and 0.8), respectively.
Each vessel is then inoculated with a cell suspension of the appropriate test organism. Bacteria are grown in broth, fungi on agar slants for a time and at a temperature appropriate to the species being tested, and algae are a mixture of green algae and blue-green bacteria grown in a nutrient media. At the end of the growth period, in the case of bacteria, the broth is vortexed to disperse the cells.
The vessels are then incubated at the appropriate temperature. After the incubation, the vessels are examined for growth/no growth.

For CC(=O)NCC(=O)OCC#CI [Compound 28, N-acetylglycine iodopropargyl ester], the inhibition of growth at 1.5 ppm ([1]; 1.5 ppm, Table IVb, read-out: % Control at (ppm) indicated RHI) was 100%, the inhibition of growth at 6 ppm ([1]; 6 ppm, Table IVb, read-out: % Control at (ppm) indicated RHI) was 100% and the inhibition of growth at 25 ppm ([1]; Table IVa, read-out: % Control at 25 ppm RHI) was 100%. It also gave an inhibition of growth at 25 ppm ([1]; Table IVb, read-out: % Control at (ppm) indicated RHI) of 100%, an inhibition of growth at 0.2 ppm ([1]; .2 ppm, Table IVb, read-out: % Control at (ppm) indicated RHI) of 0% and an inhibition of growth at 0.4 ppm ([1]; .4 ppm, Table IVb, read-out: % Control at (ppm) indicated RHI) of 0%. It also gave an inhibition of growth at 0.8 ppm ([1]; .8 ppm, Table IVb, read-out: % Control at (ppm) indicated RHI) of 0%, an inhibition of growth at 1.5 ppm ([2]; 1.5 ppm) of 0% and an inhibition of growth at 3 ppm ([2]; 3 ppm) of 0%. For the same compound, the inhibition of growth at 6 ppm ([2]; 6 ppm) was 75%, the inhibition of growth at 12 ppm ([2]; 12 ppm) was 100% and the inhibition of growth at 25 ppm ([2]; 25 ppm) was 100%. It also gave an inhibition of growth at 0.2 ppm ([2]; .2 ppm) of 0%, an inhibition of growth at 0.4 ppm ([2]; .4 ppm) of 0% and an inhibition of growth at 0.8 ppm ([2]; .8 ppm) of 0%. The inhibition of growth at 25 ppm [3] was 50%, the inhibition of growth at 1.5 ppm ([4]; 1.5 ppm, Table IVb, read-out: % Control at (ppm) indicated HEL) was 0% and the inhibition of growth at 6 ppm ([4]; 6 ppm, Table IVb, read-out: % Control at (ppm) indicated HEL) was 100%. For the same compound, the inhibition of growth at 25 ppm ([4]; Table IVa, *=Phytotoxic, read-out: % Control at 25 ppm HEL) was 100%, the inhibition of growth at 25 ppm ([4]; Table IVb, read-out: % Control at (ppm) indicated HEL) was 100% and the inhibition of growth at 0.2 ppm ([4]; .2 ppm, Table IVb, read-out: % Control at (ppm) indicated HEL) was 0%. It also gave an inhibition of growth at 0.4 ppm ([4]; .4 ppm, Table IVb, read-out: % Control at (ppm) indicated HEL) of 0%, an inhibition of growth at 0.8 ppm ([4]; .8 ppm, Table IVb, read-out: % Control at (ppm) indicated HEL) of 0% and an inhibition of growth at 1.5 ppm ([5]; 1.5 ppm) of 0%. The inhibition of growth at 6 ppm ([5]; 6 ppm) was 100%, the inhibition of growth at 25 ppm ([5]; 25 ppm) was 100% and the inhibition of growth at 0.2 ppm ([5]; .2 ppm) was 0%. It also gave an inhibition of growth at 0.4 ppm ([5]; .4 ppm) of 0%, an inhibition of growth at 0.8 ppm ([5]; .8 ppm) of 0% and an inhibition of growth at 1.5 ppm ([6]; 1.5 ppm, Table IVb, read-out: % Control at (ppm) indicated BOC) of 0%. For the same compound, the inhibition of growth at 6 ppm ([6]; 6 ppm, Table IVb, read-out: % Control at (ppm) indicated BOC) was 0%, the inhibition of growth at 25 ppm ([6]; Table IVa, *=Phytotoxic, read-out: % Control at 25 ppm BOC) was 100% and the inhibition of growth at 25 ppm ([6]; Table IVb, read-out: % Control at (ppm) indicated BOC) was 100%. It also gave an inhibition of growth at 0.2 ppm ([6]; .2 ppm, Table IVb, read-out: % Control at (ppm) indicated BOC) of 0%, an inhibition of growth at 0.4 ppm ([6]; .4 ppm, Table IVb, read-out: % Control at (ppm) indicated BOC) of 0% and an inhibition of growth at 0.8 ppm ([6]; .8 ppm, Table IVb, read-out: % Control at (ppm) indicated BOC) of 0%. The inhibition of growth at 1.5 ppm ([7]; 1.5 ppm) was 0%, the inhibition of growth at 6 ppm ([7]; 6 ppm) was 100% and the inhibition of growth at 25 ppm ([7]; 25 ppm) was 100%. The inhibition of growth at 0.2 ppm ([7]; .2 ppm) was 0%, the inhibition of growth at 0.4 ppm ([7]; .4 ppm) was 0% and the inhibition of growth at 0.8 ppm ([7]; .8 ppm) was 0%. The inhibition of growth at 1.5 ppm ([8]; 1.5 ppm, Table IVb, read-out: % Control at (ppm) indicated PYU) was 0%, the inhibition of growth at 6 ppm ([8]; 6 ppm, Table IVb, read-out: % Control at (ppm) indicated PYU) was 100% and the inhibition of growth at 25 ppm ([8]; Table IVa, read-out: % Control at 25 ppm PYU) was 100%. The inhibition of growth at 25 ppm ([8]; Table IVb, read-out: % Control at (ppm) indicated PYU) was 100%, the inhibition of growth at 0.2 ppm ([8]; .2 ppm, Table IVb, read-out: % Control at (ppm) indicated PYU) was 0% and the inhibition of growth at 0.4 ppm ([8]; .4 ppm, Table IVb, read-out: % Control at (ppm) indicated PYU) was 0%. It also gave an inhibition of growth at 0.8 ppm ([8]; .8 ppm, Table IVb, read-out: % Control at (ppm) indicated PYU) of 0%, an inhibition of growth at 1.5 ppm ([9]; 1.5 ppm) of 0% and an inhibition of growth at 3 ppm ([9]; 3 ppm) of 0%. The inhibition of growth at 6 ppm ([9]; 6 ppm) was 0%, the inhibition of growth at 12 ppm ([9]; 12 ppm) was 0% and the inhibition of growth at 25 ppm ([9]; 25 ppm) was 50%. It also gave an inhibition of growth at 0.2 ppm ([9]; .2 ppm) of 0%, an inhibition of growth at 0.4 ppm ([9]; .4 ppm) of 0% and an inhibition of growth at 0.8 ppm ([9]; .8 ppm) of 0%. For the same compound, the MIC [10] was 63 µg/mL (≈ 224 µM), the MIC ([11]; Aspergillus niger, read-out: MIC ANIG) was 12.5 µg/mL (≈ 44.5 µM) and the MIC ([11]; Aureobasidium pullulans, read-out: MIC APUL) was 50 µg/mL (≈ 178 µM). It also gave an MIC ([11]; Gloeophyllum trabeum, read-out: MIC GTRA) of 6.2 µg/mL (≈ 22.1 µM), an inhibition of growth at 1.5 ppm ([12]; 1.5 ppm) of 50% and an inhibition of growth at 3 ppm ([12]; 3 ppm) of 100%. For the same compound, the inhibition of growth at 6 ppm ([12]; 6 ppm) was 100%, the inhibition of growth at 12 ppm ([12]; 12 ppm) was 100% and the inhibition of growth at 25 ppm ([12]; 25 ppm) was 100%. It also gave an inhibition of growth at 0.2 ppm ([12]; .2 ppm) of 0%, an inhibition of growth at 0.4 ppm ([12]; .4 ppm) of 0% and an inhibition of growth at 0.8 ppm ([12]; .8 ppm) of 0%. The MIC [13] was 2 µg/mL (≈ 7.12 µM), the inhibition of growth at 1.5 ppm ([14]; 1.5 ppm, Table IVb, read-out: % Control at (ppm) indicated PHY) was 0% and the inhibition of growth at 6 ppm ([14]; 6 ppm, Table IVb, read-out: % Control at (ppm) indicated PHY) was 100%. It also gave an inhibition of growth at 25 ppm ([14]; Table IVa, read-out: % Control at 25 ppm PHY) of 100%, an inhibition of growth at 25 ppm ([14]; Table IVb, read-out: % Control at (ppm) indicated PHY) of 100% and an inhibition of growth at 0.2 ppm ([14]; .2 ppm, Table IVb, read-out: % Control at (ppm) indicated PHY) of 0%. For the same compound, the inhibition of growth at 0.4 ppm ([14]; .4 ppm, Table IVb, read-out: % Control at (ppm) indicated PHY) was 0%, the inhibition of growth at 0.8 ppm ([14]; .8 ppm, Table IVb, read-out: % Control at (ppm) indicated PHY) was 0% and the inhibition of growth at 25 ppm ([15]; read-out: % Control at 25 ppm FUS, 25 ppm, Table IVa, *=Phytotoxic) was 100%. It also gave an inhibition of growth at 1.5 ppm ([15]; read-out: % Control at (ppm) indicated FUS, 1.5 ppm, Table IVb) of 0%, an inhibition of growth at 3 ppm ([15]; read-out: % Control at (ppm) indicated FUS, 3 ppm, Table IVb) of 0% and an inhibition of growth at 6 ppm ([15]; read-out: % Control at (ppm) indicated FUS, 6 ppm, Table IVb) of 0%. The inhibition of growth at 12 ppm ([15]; read-out: % Control at (ppm) indicated FUS, 12 ppm, Table IVb) was 100%, the inhibition of growth at 25 ppm ([15]; read-out: % Control at (ppm) indicated FUS, 25 ppm, Table IVb) was 100% and the inhibition of growth at 0.2 ppm ([15]; read-out: % Control at (ppm) indicated FUS, .2 ppm, Table IVb) was 0%. For the same compound, the inhibition of growth at 0.4 ppm ([15]; read-out: % Control at (ppm) indicated FUS, .4 ppm, Table IVb) was 0%, the inhibition of growth at 0.8 ppm ([15]; read-out: % Control at (ppm) indicated FUS, .8 ppm, Table IVb) was 0% and the MIC [16] was 63 µg/mL (≈ 224 µM). The MIC [17] was 63 µg/mL (≈ 224 µM).
